Measurements: patent US10913738B2 (BRISTOL-MYERS SQUIBB COMPANY, priority 2017, dated 2021)
Read-outs that look alike come from different tables or passages of the source.

Key:
[1] = target: T1, His-GST-TVMV-hRIPK1(1-324) (Homo sapiens, UniProt Q13546); assay: RIPK1 HTRF Binding Assay
T1 construct: The coding region of human RIPK1(1-324) flanked by NdeI site at 5′ end; made in house; host or cells: Spodoptera frugiperda (Sf9) insect cells, baculovirus
T1 sequence (Q13546 1-324): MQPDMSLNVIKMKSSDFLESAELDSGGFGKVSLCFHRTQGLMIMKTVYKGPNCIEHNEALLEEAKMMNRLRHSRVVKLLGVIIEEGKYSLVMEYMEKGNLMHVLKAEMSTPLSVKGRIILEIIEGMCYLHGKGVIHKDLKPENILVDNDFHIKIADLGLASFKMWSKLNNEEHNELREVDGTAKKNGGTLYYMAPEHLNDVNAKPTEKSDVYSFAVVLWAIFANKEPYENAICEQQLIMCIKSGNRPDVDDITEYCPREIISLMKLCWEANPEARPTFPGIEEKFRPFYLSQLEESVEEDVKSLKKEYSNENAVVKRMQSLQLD

[2] = test system: MLKL phosphorylation in HT29-L23 human colorectal adenocarcinoma cells; assay: MLKL Phosphorylation High-Content Assay; type: cell-based; settings: Homo sapiens
Procedure, shortened: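 IC50 and Ymax obtained by 4-parameter logistic fitting of MLKL phosphorylation, measured as mean circ-ring average intensity ratio from high-content images. Staining used an anti-phospho-S358 MLKL antibody overnight at 4° C., following six-hour cell incubation at 37° C.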

[3] = x marks IC50 class <20 nM, read-out: RIPK1 HTRF binding <20 nM
[4] = x marks IC50 class 20-200 nM, read-out: pMLKL cell activity 20-200 nM
[5] = x marks IC50 class >200 nM, read-out: pMLKL cell activity >200 nM
[6] = x marks IC50 class <20 nM, read-out: pMLKL cell activity <20 nM
[7] = x marks IC50 class 20-200 nM, read-out: RIPK1 HTRF binding 20-200 nM

Row | Compound | IC50 [1, 3] [nM] | IC50 [2, 4] [nM] | IC50 [2, 5] [nM] | IC50 [1, 7] [nM] | other results
1 | Cc1ncc(C(=O)NCc2ccccc2OCC2CCCC2)cc1-c1ccn2nc(N)nc2c1 [Example 263, 5-{2-amino-[1,2,4]triazolo[1,5-a]pyridin-7-yl}-N-{[2-(cyclopentylmethoxy)phenyl]methyl}-6-methylpyridine-3-carboxamide] | < 20 | 20 to 200 |  |  | 
2 | COc1ncc(-c2ccn3nc(N)nc3c2)cc1C(=O)NCc1ccccc1CN1CCOCC1 [Example 105, 5-{2-amino-[1,2,4]triazolo[1,5-a]pyridin-7-yl}-2-methoxy-N-({2-[(morpholin-4-yl)methyl]phenyl}methyl)pyridine-3-carboxamide] | < 20 |  | > 200 |  | 
3 | Cc1ncc(-c2ccn3nc(N)nc3c2)cc1C(=O)NCc1c(F)cccc1OCC1CC1 [Example 245, 5-{2-amino-[1,2,4]triazolo[1,5-a]pyridin-7-yl}-N-{[2-(cyclopropylmethoxy)-6-fluorophenyl]methyl}-2-methylpyridine-3-carboxamide] | < 20 | 20 to 200 |  |  | 
4 | Cc1nc(C)c(-c2ccn3nc(N)nc3c2)cc1C(=O)NCC(O)COc1ccccc1 (stereo not shown) [Example 172, 5-{2-amino-[1,2,4]triazolo[1,5-a]pyridin-7-yl}-N-(2-hydroxy-3-phenoxypropyl)-2,6-dimethylpyridine-3-carboxamide] | < 20 | 20 to 200 |  |  | 
5 | COc1ncc(-c2ccn3nc(N)nc3c2)cc1C(=O)NCc1ccccc1Oc1ccccc1 [Example 158, 5-{2-amino-[1,2,4]triazolo[1,5-a]pyridin-7-yl}-2-methoxy-N-[(2-phenoxyphenyl)methyl]pyridine-3-carboxamide] | < 20 |  |  |  | IC50 [2, 6]: < 20 nM
6 | COc1ncc(-c2ccn3nc(N)nc3c2)cc1C(=O)NCc1ncccc1OC1CCCC1 [Example 141, 5-{2-amino-[1,2,4]triazolo[1,5-a]pyridin-7-yl}-N-{[3-(cyclopentyloxy)pyridin-2-yl]methyl}-2-methoxypyridine-3-carboxamide] | < 20 | 20 to 200 |  |  | 
7 | Cc1ncc(-c2ccn3nc(N)nc3c2)cc1C(=O)NCc1cc(OC(F)(F)F)ccc1F [Example 229, 5-{2-amino-[1,2,4]triazolo[1,5-a]pyridin-7-yl}-N-{[2-fluoro-5-(trifluoromethoxy)phenyl]methyl}-2-methylpyridine-3-carboxamide] | < 20 | 20 to 200 |  |  | 
8 | COc1ncc(-c2ccn3nc(N)nc3c2)cc1C(=O)NCc1ccccc1OC1CCCC1 [Example 148, 5-{2-amino-[1,2,4]triazolo[1,5-a]pyridin-7-yl}-N-{[2-(cyclopentyloxy)phenyl]methyl}-2-methoxypyridine-3-carboxamide] | < 20 |  |  |  | IC50 [2, 6]: < 20 nM
9 | COc1nc(C)c(-c2ccn3nc(N)nc3c2)cc1C(=O)NCCc1ccccc1OC(F)(F)F [Example 194, 5-{2-amino-[1,2,4]triazolo[1,5-a]pyridin-7-yl}-2-methoxy-6-methyl-N-{2-[2-(trifluoromethoxy)phenyl]ethyl}pyridine-3-carboxamide] |  |  | > 200 | 20 to 200 | 
10 | COc1nc(C)c(-c2ccn3nc(N)nc3c2)cc1C(=O)NCc1c(F)cccc1OCC1CCC1 [Example 214, 5-{2-amino-[1,2,4]triazolo[1,5-a]pyridin-7-yl}-N-{[2-(cyclobutylmethoxy)-6-fluorophenyl]methyl}-2-methoxy-6-methylpyridine-3-carboxamide] | < 20 |  |  |  | IC50 [2, 6]: < 20 nM
11 | [2H]C([2H])([2H])Oc1ncc(-c2ccn3nc(N)nc3c2)cc1C(=O)N[C@H](C)c1cc(OC(F)(F)F)ccc1F [Example 285, (R)-5-(2-amino-[1,2,4]triazolo[1,5-a]pyridin-7-yl)-N-(1-(2-fluoro-5-(trifluoromethoxy)phenyl)ethyl)-2-(methoxy-d3)nicotinamide] |  | 20 to 200 |  | 20 to 200 | 
12 | COc1nc(C)c(-c2ccn3nc(N)nc3c2)cc1C(=O)NCc1ncccc1OCC(F)(F)F [Example 366, 5-(2-amino-[1,2,4]triazolo[1,5-a]pyridin-7-yl)-2-methoxy-6-methyl-N-((3-(2,2,2-trifluoroethoxy)pyridin-2-yl)methyl)nicotinamide] | < 20 |  | > 200 |  | 
13 | [2H]C([2H])([2H])Oc1ncc(-c2ccn3nc(N)nc3c2)cc1C(=O)NC([2H])([2H])c1cc(C(F)(F)F)ccc1F [Example 284, 5-(2-amino-[1,2,4]triazolo[1,5-a]pyridin-7-yl)-N-((2-fluoro-5-(trifluoromethyl)phenyl)methyl-d2)-2-(methoxy-d3)nicotinamide] | < 20 | 20 to 200 |  |  | 
14 | [2H]C([2H])([2H])[C@@H](NC(=O)c1cc(-c2ccn3nc(N)nc3c2)cnc1C)c1cccc(OC(F)(F)F)c1 [Example 311, (R)-5-(2-amino-[1,2,4]triazolo[1,5-a]pyridin-7-yl)-2-methyl-N-(1-(3-(trifluoromethoxy)phenyl)ethyl-2,2,2-H3)nicotinamide] |  |  | > 200 | 20 to 200 | 
15 | Cc1nc(C)c(-c2ccn3nc(N)nc3c2)cc1C(=O)NCCC(C)c1ccccc1 (stereo not shown) [Example 174, 5-{2-amino-[1,2,4]triazolo[1,5-a]pyridin-7-yl}-2,6-dimethyl-N-(3-phenylbutyl)pyridine-3-carboxamide] |  |  | > 200 | 20 to 200 | 
16 | COc1ncc(-c2ccn3nc(N)nc3c2)cc1C(=O)N1CCOC(c2ccccc2)C1 (stereo not shown) [Example 425] |  |  | > 200 |  | IC50 ([1]; x marks IC50 class >200 nM, read-out: RIPK1 HTRF binding >200 nM): > 200 nM
17 | Cc1ncc(-c2ccn3nc(N)nc3c2)cc1C(=O)NCc1cccc(OCC2CC2)c1 [Example 243, 5-{2-amino-[1,2,4]triazolo[1,5-a]pyridin-7-yl}-N-{[3-(cyclopropylmethoxy)phenyl]methyl}-2-methylpyridine-3-carboxamide] |  |  | > 200 | 20 to 200 | 
18 | COc1ncc(-c2ccn3nc(N)nc3c2)cc1C(=O)N[C@H]1C[C@@H]1c1ccccc1 [Example 100, 5-{2-amino-[1,2,4]triazolo[1,5-a]pyridin-7-yl}-2-methoxy-N-[(1S,2R)-2-phenylcyclopropyl]pyridine-3-carboxamide] |  |  | > 200 | 20 to 200 | 
19 | Nc1nc2cc(-c3cc(C(=O)NCc4cc(F)ccc4OC(F)(F)F)cnc3Cl)ccn2n1 [Example 369, 5-(2-amino-[1,2,4]triazolo[1,5-a]pyridin-7-yl)-6-chloro-N-(5-fluoro-2-(trifluoromethoxy)benzyl)nicotinamide] | < 20 | 20 to 200 |  |  | 
20 | Cc1ncc(-c2ccn3nc(N)nc3c2)cc1C(=O)NCc1cc(F)ccc1-c1ccn(C)n1 [Example 298, 5-(2-amino-[1,2,4]triazolo[1,5-a]pyridin-7-yl)-N-(5-fluoro-2-(1-methyl-1H-pyrazol-3-yl)benzyl)-2-methylnicotinamide] |  |  | > 200 | 20 to 200 | 
21 | [2H]C([2H])(NC(=O)c1cc(-c2ccn3nc(N)nc3c2)cnc1C)c1cc(F)cc(F)c1OCC1CC1 [Example 253, 5-{2-amino-[1,2,4]triazolo[1,5-a]pyridin-7-yl}-N-{[2-(cyclopropylmethoxy)-3,5-difluorophenyl](deutero)methyl}-2-methylpyridine-3-carboxamide] | < 20 |  |  |  | IC50 [2, 6]: < 20 nM
22 | COc1nc(C)c(-c2ccn3nc(N)nc3c2)cc1C(=O)NCc1ccccc1OC1CCCC1 [Example 219, 5-{2-amino-[1,2,4]triazolo[1,5-a]pyridin-7-yl}-N-{[2-(cyclopentyloxy)phenyl]methyl}-2-methoxy-6-methylpyridine-3-carboxamide] | < 20 |  |  |  | IC50 [2, 6]: < 20 nM
23 | Cc1ncc(-c2ccn3nc(N)nc3c2)cc1C(=O)NC(C)c1cccc(OC(F)(F)F)c1 (stereo not shown) [Example 234, 5-{2-amino-[1,2,4]triazolo[1,5-a]pyridin-7-yl}-2-methyl-N-{1-[3-(trifluoromethoxy)phenyl]ethyl}pyridine-3-carboxamide] |  |  | > 200 | 20 to 200 | 
24 | COc1nc(C)c(-c2ccn3nc(N)nc3c2)cc1C(=O)NCc1cc(F)cc(C(F)(F)F)c1 [Example 196, 5-{2-amino-[1,2,4]triazolo[1,5-a]pyridin-7-yl}-N-{[3-fluoro-5-(trifluoromethyl)phenyl]methyl}-2-methoxy-6-methylpyridine-3-carboxamide] |  |  | > 200 | 20 to 200 | 
25 | [2H]C([2H])(NC(=O)c1cc(-c2ccn3nc(N)nc3c2)c(C)nc1OC)c1cc(C(F)(F)F)ccc1F [Example 331, 5-(2-amino-[1,2,4]triazolo[1,5-a]pyridin-7-yl)-N-((2-fluoro-5-(trifluoromethyl)phenyl)methyl-d2)-2-methoxy-6-methylnicotinamide] | < 20 | 20 to 200 |  |  | 
26 | Nc1nc2cc(-c3cnc(C4CC4)c(C(=O)NCc4cccc(OC(F)(F)F)c4)c3)ccn2n1 [Example 19, 5-{2-Amino-[1,2,4]triazolo[1,5-a]pyridin-7-yl}-2-cyclopropyl-N-{[3-(trifluoromethoxy)phenyl]methyl}pyridine-3-carboxamide] |  | 20 to 200 |  | 20 to 200 | 
